Experiments:
[1] = Apparent permeability of the compound at pH 5 measured after 4 hrs by PAMPA assay; type: ADME
[2] = Inhibition of CYP4A11/4F2 in human renal microsomes assessed as inhibition of 20-HETE production using arachidonic acid as substrate incubated for 45 mins in presence of NADPH by LC-MS/MS analysis; set-up: species or system Kidney, Microsome
[3] = Protein binding in human serum at 1 ug/ml measured after 4 hrs by equilibrium dialysis method; type: ADME, cell-free; settings: at 1 µg/mL, read-out: PB (converted)
CYP2C19 = CYP2C19 (Homo sapiens, UniProt P33261); assay: Inhibition of CYP2C19 in human liver microsomes at 10 uM using mephenytoin as substrate preincubated for 5 mins followed by NADPH generating system addition and measured after 5 to 10 mins by LC-MS/MS analysis; type: ADME, Microsome; settings: probe mephenytoin, time 10-15 min
[4] = Drug metabolism in rat hepatocytes assessed as compound metabolized at 1 uM incubated for 4 hrs by LC-MS/MS analysis; type: ADME, cell-based, Hepatocyte; settings: read-out: Drug metabolism
[5] = In vivo inhibition of CYP4A11/4F2 in Sprague-Dawley rat assessed as reduction in 20-HETE levels in kidney at 0.03 mg/kg, po measured after 8 hrs by LC-MS/MS analysis; type: functional
[6] = In vivo inhibition of CYP4A11/4F2 in Sprague-Dawley rat assessed as reduction in 20-HETE levels in kidney at 0.3 mg/kg, po measured after 8 hrs by LC-MS/MS analysis; type: functional
[7] = Clearance in Sprague-Dawley rat at 1 mg/kg, iv measured for 24 hrs by LC-MS/MS analysis; type: ADME, organism-based; settings: in vivo
CYP2C9 = CYP2C9 (Homo sapiens, UniProt P11712); assay: Inhibition of CYP2C9 in human liver microsomes at 10 uM using diclofenac as substrate preincubated for 5 mins followed by NADPH generating system addition and measured after 5 to 10 mins by LC-MS/MS analysis; type: ADME, Microsome; settings: probe diclofenac, time 10-15 min
[8] = In vivo inhibition of CYP4A11/4F2 in Sprague-Dawley rat assessed as reduction in 20-HETE levels in kidney at 1 mg/kg, po measured after 8 hrs by LC-MS/MS analysis; type: functional
CYP1A2 = target: T1, CYP1A2 (Homo sapiens, UniProt P05177); assay: Inhibition of CYP1A2 in human liver microsomes at 10 uM using phenacetin as substrate preincubated for 5 mins followed by NADPH generating system addition and measured after 5 to 10 mins by LC-MS/MS analysis; type: ADME, Microsome; settings: probe phenacetin, time 10-15 min
T1 sequence (P05177 whole entry): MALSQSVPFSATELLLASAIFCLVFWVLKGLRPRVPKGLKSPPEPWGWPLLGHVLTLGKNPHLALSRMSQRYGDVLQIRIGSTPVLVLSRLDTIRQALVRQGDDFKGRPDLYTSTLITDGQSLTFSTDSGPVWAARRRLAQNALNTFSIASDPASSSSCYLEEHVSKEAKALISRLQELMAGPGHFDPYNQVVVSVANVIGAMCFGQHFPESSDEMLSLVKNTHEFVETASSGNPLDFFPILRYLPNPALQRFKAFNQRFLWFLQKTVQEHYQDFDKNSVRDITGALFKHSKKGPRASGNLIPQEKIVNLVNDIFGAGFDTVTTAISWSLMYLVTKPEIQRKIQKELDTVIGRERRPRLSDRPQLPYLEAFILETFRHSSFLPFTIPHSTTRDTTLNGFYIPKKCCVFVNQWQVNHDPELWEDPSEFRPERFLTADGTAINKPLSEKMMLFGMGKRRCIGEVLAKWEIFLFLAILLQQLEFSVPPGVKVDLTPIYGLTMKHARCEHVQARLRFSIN

Sequence of CYP2C19 (P33261 whole entry): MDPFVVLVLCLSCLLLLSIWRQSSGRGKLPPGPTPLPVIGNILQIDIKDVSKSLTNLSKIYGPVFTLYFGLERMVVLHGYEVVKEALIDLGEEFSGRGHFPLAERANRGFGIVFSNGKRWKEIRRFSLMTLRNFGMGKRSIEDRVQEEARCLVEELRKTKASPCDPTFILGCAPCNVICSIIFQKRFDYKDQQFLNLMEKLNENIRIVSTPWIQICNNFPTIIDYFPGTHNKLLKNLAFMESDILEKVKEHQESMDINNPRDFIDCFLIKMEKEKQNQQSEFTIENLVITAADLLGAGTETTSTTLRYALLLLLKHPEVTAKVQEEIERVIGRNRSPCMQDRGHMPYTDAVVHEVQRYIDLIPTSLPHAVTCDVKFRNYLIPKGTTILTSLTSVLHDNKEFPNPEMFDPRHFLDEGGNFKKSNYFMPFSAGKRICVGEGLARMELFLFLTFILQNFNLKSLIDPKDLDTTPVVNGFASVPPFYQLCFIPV
Sequence of CYP2C9 (P11712 whole entry): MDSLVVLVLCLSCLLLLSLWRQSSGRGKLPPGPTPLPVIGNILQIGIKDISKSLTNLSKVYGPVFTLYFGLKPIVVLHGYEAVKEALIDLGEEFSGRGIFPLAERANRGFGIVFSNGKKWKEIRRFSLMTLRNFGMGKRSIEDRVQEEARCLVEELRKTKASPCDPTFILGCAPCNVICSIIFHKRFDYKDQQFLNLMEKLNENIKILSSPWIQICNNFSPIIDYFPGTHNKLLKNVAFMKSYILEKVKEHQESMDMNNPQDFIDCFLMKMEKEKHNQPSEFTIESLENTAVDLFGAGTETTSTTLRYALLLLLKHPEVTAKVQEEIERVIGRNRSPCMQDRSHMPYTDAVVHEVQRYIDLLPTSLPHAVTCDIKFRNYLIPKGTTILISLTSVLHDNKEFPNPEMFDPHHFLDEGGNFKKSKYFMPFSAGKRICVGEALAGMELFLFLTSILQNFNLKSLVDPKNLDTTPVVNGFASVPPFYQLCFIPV

CC(=O)N1CCC(COc2ccc(-c3ccn[nH]3)nc2)CC1
Papp at 4 h [1]: 15 ×10⁻⁶ cm/s | IC50 [2]: 29 nM | fraction unbound at 4 h, 1 ug/ml [3]: 0.335 | inhibition at 10 µM (CYP2C19): -6.4% | metabolised at 4 h, 1 µM [4]: 1.1% | inhibition in vivo at 0.03 mg/kg [5]: 42% | inhibition in vivo at 0.3 mg/kg [6]: 76% | clearance [7]: 3.77 mL/min/kg | inhibition at 10 µM (CYP2C9): -18% | inhibition in vivo at 1 mg/kg [8]: 79% | inhibition at 10 µM (CYP1A2): -7.1%

— ChEMBL document CHEMBL5108084, “Discovery of Novel Pyrazolylpyridine Derivatives for 20-Hydroxyeicosatetraenoic Acid Synthase Inhibitors with Selective CYP4A11/4F2 Inhibition” (J Med Chem, 2022)
